According to ChEMBL document CHEMBL1132595, “Acquisition of high-affinity, SH2-targeted ligands via a spatially focused library” (J Med Chem, 1999):

Legend:
[1] = Dissociation constant for binding to SH2 domain of Phospholipase C gamma
[2] = target: Growth factor receptor-bound protein 2 (Homo sapiens, UniProt P62993); experiment: Dissociation constant for binding to SH2 domain of Growth factor receptor bound protein 2, Grb2
[3] = target: Tyrosine-protein kinase Fyn (Homo sapiens, UniProt P06241); experiment: Dissociation constant for binding to SH2 domain of Fyn protein kinase
[4] = target: Tyrosine-protein kinase Lck (Homo sapiens, UniProt P06239); experiment: Dissociation constant for binding to SH2 domain of p56 lck tyrosine kinase
[5] = Dissociation constant for binding to SH2 domain of Phosphatidylinositol 3-kinase p85 subunit

Sequence of Tyrosine-protein kinase Lck (P06239 whole entry, the tested form may be a part): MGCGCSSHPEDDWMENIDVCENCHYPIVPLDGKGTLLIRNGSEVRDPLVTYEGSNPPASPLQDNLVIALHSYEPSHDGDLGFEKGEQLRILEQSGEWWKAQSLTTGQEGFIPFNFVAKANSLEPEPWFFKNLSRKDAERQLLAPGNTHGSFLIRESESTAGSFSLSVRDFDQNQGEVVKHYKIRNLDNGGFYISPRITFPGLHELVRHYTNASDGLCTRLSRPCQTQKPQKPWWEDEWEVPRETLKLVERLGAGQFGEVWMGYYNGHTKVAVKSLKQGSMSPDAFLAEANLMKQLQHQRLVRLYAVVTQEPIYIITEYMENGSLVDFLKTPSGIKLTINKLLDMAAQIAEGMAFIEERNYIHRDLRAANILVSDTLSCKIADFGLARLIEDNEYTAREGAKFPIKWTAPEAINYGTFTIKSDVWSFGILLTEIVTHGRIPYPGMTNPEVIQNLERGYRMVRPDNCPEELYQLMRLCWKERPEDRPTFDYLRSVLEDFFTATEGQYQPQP
Sequence of Tyrosine-protein kinase Fyn (P06241 whole entry, the tested form may be a part): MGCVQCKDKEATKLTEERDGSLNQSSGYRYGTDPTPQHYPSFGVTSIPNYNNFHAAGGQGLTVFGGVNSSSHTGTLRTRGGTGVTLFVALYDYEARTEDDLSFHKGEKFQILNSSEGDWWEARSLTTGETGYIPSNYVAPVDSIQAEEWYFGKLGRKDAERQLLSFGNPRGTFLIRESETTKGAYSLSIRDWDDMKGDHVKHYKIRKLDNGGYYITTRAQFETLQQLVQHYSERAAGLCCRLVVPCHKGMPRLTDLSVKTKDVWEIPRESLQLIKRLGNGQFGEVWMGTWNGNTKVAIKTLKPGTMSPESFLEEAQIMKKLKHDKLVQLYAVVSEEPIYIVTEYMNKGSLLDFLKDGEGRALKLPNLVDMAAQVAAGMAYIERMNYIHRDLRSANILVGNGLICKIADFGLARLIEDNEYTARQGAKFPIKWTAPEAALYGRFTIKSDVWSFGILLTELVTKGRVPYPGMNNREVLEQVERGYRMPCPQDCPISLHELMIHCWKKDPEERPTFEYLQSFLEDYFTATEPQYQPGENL
Sequence of Growth factor receptor-bound protein 2 (P62993 whole entry, the tested form may be a part): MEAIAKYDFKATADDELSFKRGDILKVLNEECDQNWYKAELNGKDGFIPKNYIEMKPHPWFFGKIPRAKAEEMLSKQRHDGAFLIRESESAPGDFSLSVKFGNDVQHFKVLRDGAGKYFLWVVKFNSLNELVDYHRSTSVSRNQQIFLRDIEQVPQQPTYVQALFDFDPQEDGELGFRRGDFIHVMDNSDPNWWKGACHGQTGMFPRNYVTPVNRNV

O=C(O)Cc1cc(=O)oc2cc(O)ccc12
Kd [1]: 4.9 µM | Kd [2]: 11.3 µM | Kd [3]: 0.15 µM | Kd [4]: 0.035 µM | Kd [5]: 9.3 µM

O=C(O)c1ccsc1
Kd [3]: 0.7 µM | Kd [4]: 0.26 µM

COc1ccc2c(CC(=O)O)cc(=O)oc2c1
Kd [4]: 2.5 µM

O=C(O)CNC(=O)c1ccc([N+](=O)[O-])cc1
Kd [3]: 0.24 µM | Kd [4]: 0.29 µM

O=C(O)c1cc(C(=O)O)cc(S(=O)(=O)O)c1
Kd [3]: 0.06 µM | Kd [4]: 0.22 µM

COc1cc(Br)c(C(=O)O)cc1OC
Kd [3]: 0.5 µM | Kd [4]: 0.24 µM
